In assay [1] the target is T1, Recombinant ROCK1 (amino acids 1-477) (Homo sapiens, UniProt Q13464).
T1 construct: Recombinant ROCK1 (amino acids 1-477); by word order, ROCK1 from Carna Biosciences
The assay can be described thus: ROCK inhibition assay, LANCE Ultra TR-FRET kinase assay (ROCK1). Type of assay: biochemical. The note with it: 1 μM ATP, 50 nM ULight-CREBtide substrate. The method, boiled down: (§1)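 Reaction buffer 50 mM HEPES pH 7.5, 10 mM MgCl2, 1 mM EGTA, 2 mM DTT; kinase, ULight-CREBtide (50 nM) and ATP (ROCK1 1 μM, ROCK2 4 μM) react 1 h at room temperature. Phospho-Ser133 detected by europium antibody after 10 mM EDTA stop, TR-FRET ex 320 nm; IC50 calculated.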

Assay [2] addresses T2, Recombinant ROCK2 (amino acids 5-554) (Homo sapiens, UniProt O75116).
T2 construct: ROCK2 (amino acids 5-554); by word order, ROCK2 from SignalChem
The assay can be described thus: ROCK inhibition assay, LANCE Ultra TR-FRET kinase assay (ROCK2). Type of assay: biochemical. The note with it: 4 μM ATP, 50 nM ULight-CREBtide substrate. The method, boiled down:
as §1
For orientation: TR-FRET usually uses a lanthanide donor and a delayed reading to cut background.

SMILES strings stand for the structures. Bounds are passed on as bounds.

T2 sequence (O75116 5-554): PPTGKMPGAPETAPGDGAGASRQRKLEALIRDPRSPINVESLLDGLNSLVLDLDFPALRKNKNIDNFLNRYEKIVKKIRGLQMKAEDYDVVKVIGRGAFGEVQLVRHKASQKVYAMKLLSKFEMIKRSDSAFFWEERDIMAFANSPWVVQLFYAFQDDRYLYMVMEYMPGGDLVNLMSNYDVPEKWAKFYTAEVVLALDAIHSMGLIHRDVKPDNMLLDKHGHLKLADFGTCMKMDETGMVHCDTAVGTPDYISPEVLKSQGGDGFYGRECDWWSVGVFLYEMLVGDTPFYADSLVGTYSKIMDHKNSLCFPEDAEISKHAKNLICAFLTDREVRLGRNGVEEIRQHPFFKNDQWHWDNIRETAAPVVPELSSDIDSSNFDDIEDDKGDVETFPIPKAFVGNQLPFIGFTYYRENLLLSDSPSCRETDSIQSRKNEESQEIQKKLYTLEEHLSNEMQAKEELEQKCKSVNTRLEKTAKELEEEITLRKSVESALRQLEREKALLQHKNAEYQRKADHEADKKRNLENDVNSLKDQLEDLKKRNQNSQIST
T1 sequence (Q13464 1-477): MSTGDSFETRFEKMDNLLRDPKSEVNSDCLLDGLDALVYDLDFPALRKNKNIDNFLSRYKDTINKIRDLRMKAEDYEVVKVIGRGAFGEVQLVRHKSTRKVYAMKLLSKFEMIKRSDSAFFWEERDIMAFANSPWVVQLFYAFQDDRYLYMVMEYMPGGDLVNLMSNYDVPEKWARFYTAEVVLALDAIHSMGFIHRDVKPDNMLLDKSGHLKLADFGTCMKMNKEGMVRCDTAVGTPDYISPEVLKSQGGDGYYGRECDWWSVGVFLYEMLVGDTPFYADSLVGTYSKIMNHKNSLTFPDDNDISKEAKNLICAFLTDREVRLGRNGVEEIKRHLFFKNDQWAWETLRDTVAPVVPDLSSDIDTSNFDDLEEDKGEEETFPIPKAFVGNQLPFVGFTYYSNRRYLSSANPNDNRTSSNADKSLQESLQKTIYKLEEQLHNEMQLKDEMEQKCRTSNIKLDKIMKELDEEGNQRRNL

In the case of `O=C(NCC1CCN(C2COC2)CC1)c1cc(F)cc(Cn2ccc3cc(N4CCOCC4)ccc3c2=O)c1` [Compound 228], the values for the concentration for half-maximal inhibition (IC50) in assay [1] and in assay [2] were 101 to 500 nM and 10 to 100 nM, respectively.
Take `COc1cccc(Cn2cnc3cc(-c4ccnn4C)ccc3c2=O)c1` [Compound 358]: the results for the IC50 in assay [1] and in assay [2] were 11 to 100 nM and 10 to 100 nM, respectively.
In the case of `Cn1nccc1-c1ccc2c(=O)n(Cc3cccc(C(=O)NCc4ccc(F)nc4)c3)ccc2c1` [Compound 114], the IC50 (commonly the concentration at which inhibition is half-maximal) in assay [1] is 11 to 100 nM; in assay [2] it was less than 10 nM.
The corresponding values for `COc1cccc([C@@H](CO)N2CNc3cc(-c4cn[nH]c4C(F)(F)F)ccc3C2=O)c1` [Compound 528] are more than 501 nM and 100 to 500 nM.
Consider `CN1CCC(NC(=O)c2cc(F)cc(Cn3ccc4cc(-c5c[nH]nc5C(F)(F)F)ccc4c3=O)c2)CC1` [Compound 132], for which the IC50 in assay [1] and in assay [2] was less than 10 nM in each case.
Turning to `Cc1nocc1-c1ccc2c(=O)n(Cc3cccc(C(=O)NCC4COC4)c3)cnc2c1` [Compound 415], the figures for the IC50 in assay [1] and in assay [2] were 11 to 100 nM and less than 10 nM, respectively.
With `CNC(=O)c1cccc(Cn2cc(CC(C)O)c3cc(-c4cn[nH]c4C(F)(F)F)ccc3c2=O)c1` (centres unmarked) [Compound 547], the values for the half-inhibitory concentration (IC50) in assay [1] and in assay [2] were 11 to 100 nM and less than 10 nM, respectively.
For the compound `Cc1nocc1-c1ccc2c(=O)n(Cc3cc(F)cc(C(=O)NCC4CCN(CC(F)(F)F)CC4)c3)ccc2c1` [Compound 153], the 50% inhibitory concentration (IC50) is 101 to 500 nM in assay [1] and less than 10 nM in assay [2].
On to `Cn1nccc1-c1cc2ccn(Cc3cc(F)cc(C(=O)NCC4CCOCC4)c3)c(=O)c2cn1` [Compound 270], for which the results for the 50% inhibitory concentration (IC50) in assay [1] and in assay [2] were 11 to 100 nM and 10 to 100 nM, respectively.
For `O=C(NCC1CCN(CC(F)(F)F)CC1)c1cc(F)cc(Cn2ccc3cc(N4CCOCC4)ccc3c2=O)c1` [Compound 221], the IC50 is 101 to 500 nM in assay [1] and 10 to 100 nM in assay [2].
As for `O=C1c2ccc(-c3cn[nH]c3C(F)(F)F)cc2NCN1[C@H](CO)c1cccc(Cl)c1` [Compound 524], the IC50 in assay [1] was more than 501 nM; in assay [2], 100 to 500 nM.
For the compound `CNC(=O)c1cccc([C@@H](C)n2cnc3cc(-c4conc4C)ncc3c2=O)c1` [Compound 572], the concentration for half-maximal inhibition (IC50) in assay [1] fell in the range of 101 to 500 nM; in assay [2], 10 to 100 nM.
In the case of `Cc1nocc1-c1ccc2c(=O)n(Cc3cc(F)cc(C(=O)N[C@H]4C[C@H](O)C4)c3)ccc2c1` [Compound 138], the half-inhibitory concentration (IC50) in assay [1] is 101 to 500 nM; in assay [2], 10 to 100 nM.
Regarding `Cc1nocc1-c1ccc2c(=O)n(Cc3cccc(C(=O)NCc4ccc(F)nc4)c3)cc(C(C)O)c2c1` (centres unmarked) [Compound 538], the IC50 in assay [1] and in assay [2] was less than 10 nM each time.
For `CNC(=O)c1cccc(Cn2ccc3cc(-c4cn[nH]c4Cl)ccc3c2=O)c1` [Compound 290], the IC50 in assay [1] was 11 to 100 nM; in assay [2] it was less than 10 nM.
The corresponding values for `COc1cc(F)cc(Cn2ccc3cc(-c4c[nH]nc4Cl)ccc3c2=O)c1` [Compound 17] are 11 to 100 nM and less than 10 nM.
As for `O=C(NCC1CCOCC1)c1cccc(Cn2cnc3cc(-c4cn[nH]c4C(F)F)ccc3c2=O)c1` [Compound 396], the IC50 in assay [1] was 11 to 100 nM; in assay [2], less than 10 nM.
Regarding `CN1CCC(CNC(=O)c2cc(F)cc(Cn3ccc4cc(-c5c[nH]nc5C(F)F)ccc4c3=O)c2)CC1` [Compound 62], the IC50 in assay [1] and in assay [2] was less than 10 nM in each case.
Consider `[2H]C([2H])([2H])NC(=O)c1cccc(Cn2cnc3cc(-c4cn[nH]c4Cl)ccc3c2=O)c1` [Compound 405], for which the IC50 in assay [1] and in assay [2] was less than 10 nM throughout.
Turning to `CC(=O)Nc1cccc(Cn2ccc3cc(-c4c[nH]nc4C)ccc3c2=O)c1` [Compound 336], the half-maximal inhibitory concentration (IC50) in assay [1] was in the range of 101 to 500 nM; in assay [2], 10 to 100 nM.
In the case of `C[C@H](c1cccc(C(=O)NCC2COC2)c1)n1cnc2cc(-c3cn[nH]c3C(F)(F)F)ccc2c1=O` [Compound 452], the IC50 was 11 to 100 nM in assay [1] and less than 10 nM in assay [2].
The corresponding values for `Cc1nocc1-c1ccc2c(=O)n(Cc3cccc(C(=O)NCC4CCN(C)CC4)c3)cnc2c1` [Compound 417] are less than 10 nM and less than 10 nM.

The values are drawn from patent publication US12064426B2, “Selective inhibitors of ROCK1 and ROCK2 protein kinases and uses thereof” (GENOSCO Inc., priority 2021, dated 2024).
